Key:
[1] = target: T1, soluble guanylate cyclase (sGC) (Homo sapiens (Human), UniProt Q02108+Q02153); experiment: sGC-HEK-cGMP assay, new protocol with DETA-NONOate, LC/MS detection (Example 2C); assay type: cell-based; conditions: read-out: Absolute EC50 (uM) - binned
Experimental: Human embryonic kidney cells (HEK293), endogenously expressing soluble guanylate cyclase (sGC), were used to evaluate the activity of test compounds. Compounds stimulating the sGC enzyme should cause an increase in the intracellular concentration of cGMP. HEK 293 cells were seeded in Dulbecco's Modification of Eagle's Medium supplemented with fetal bovine serum (10% final) and penicillin (100 U/mL)/streptomycin (100 μg/mL) in a 50 μL volume at a density of 1.5×10^4 cells/well in a poly-D-lysine coated 384 well flat bottom plate. Cells were incubated overnight at 37° C. in a humidified chamber with 5% CO2. Medium was aspirated and cells were washed with 1× Hank's Buffered Saline Salt Solution (50 μL). Cells were then incubated for 15 minutes at 37° C. with 50 μL of a 0.5 mM 3-isobutyl-1-methylxanthine (IBMX) solution. Test article and Diethylenetriamine NONOate (DETA-NONOate) solutions (x μM concentration for test article solution and 10 μM concentration for DETA-NONOate solution; wherein x is one of the following concentrations);
were then added to the assay mixture and the resulting mixture incubated at 37° C. for 20 minutes. After the 20 minute incubation, the assay mixture was aspirated and 10% acetic acid containing 150 ng/mL+3-cGMP (internal standard for LCMS) (50 μL) was added to the cells. The plate was incubated at 4° C. for 30 minutes in the acetic acid solution to stop the reaction and lyse the cells. The plates were then centrifuged at 1,000 g for 3 minutes at 4° C. and the supernatant transferred to a clean reaction plate for LCMS analysis.
cGMP concentrations were determined from each sample using the LCMS conditions below (Table 5) and calculated standard curve.
Data were normalized to a high control using the following equation: 100*(Sample−Low Control)/(High Control−Low Control), where the low control is the average of 16 samples treated with 1% DMSO, and the high control is the average of 16 samples treated with 30 μM of 1-329 Data were fit using a 4-parameter fit (log(agonist) vs. response—variable slope) using GraphPad Prism Software v.5. n=2 for all compounds. […] Compounds failing to elicit a minimum response of 50% are reported as >30 μM.

[2] = target: T1, soluble guanylate cyclase (sGC); experiment: sGC-HEK-cGMP assay with SNP incubation, LC/MS detection (Example 2A); assay type: cell-based; conditions: HEK293 cells, 10 μM SNP, LC/MS detection; for Emax: 100% = BAY 41-2272 at 10 μM, read-out: HEK assay Emax - unconstrained (%); for EC50: top of curve not fitted to 100%, read-out: HEK assay EC50 - unconstrained
Outline: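 HEK293 cells with endogenous sGC were pretreated 15 min at 37 °C with 0.5 mM IBMX, then exposed 10 min at 37 °C to compound (added from 0.0001–30 μM solutions) plus SNP (from 10 μM solution). After 0.1 M HCl lysis, cGMP was quantified by LC/MS against a standard curve.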

T1 sequence (Q02153 whole entry): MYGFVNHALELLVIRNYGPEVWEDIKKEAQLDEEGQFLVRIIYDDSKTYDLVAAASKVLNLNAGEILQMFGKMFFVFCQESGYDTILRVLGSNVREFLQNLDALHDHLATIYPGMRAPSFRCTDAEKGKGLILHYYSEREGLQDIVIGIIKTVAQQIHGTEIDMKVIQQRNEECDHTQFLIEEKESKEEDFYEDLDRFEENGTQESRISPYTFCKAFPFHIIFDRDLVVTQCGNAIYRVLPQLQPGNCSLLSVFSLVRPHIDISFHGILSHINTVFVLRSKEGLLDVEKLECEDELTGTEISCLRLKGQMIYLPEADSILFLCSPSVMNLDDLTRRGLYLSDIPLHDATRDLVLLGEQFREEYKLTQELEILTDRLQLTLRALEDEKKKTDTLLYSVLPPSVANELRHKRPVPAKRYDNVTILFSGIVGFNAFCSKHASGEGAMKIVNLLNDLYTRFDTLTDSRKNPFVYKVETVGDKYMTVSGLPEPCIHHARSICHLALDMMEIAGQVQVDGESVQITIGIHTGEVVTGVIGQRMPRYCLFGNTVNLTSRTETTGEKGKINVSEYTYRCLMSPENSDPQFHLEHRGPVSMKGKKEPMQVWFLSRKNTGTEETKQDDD
T1 sequence (Q02108 whole entry): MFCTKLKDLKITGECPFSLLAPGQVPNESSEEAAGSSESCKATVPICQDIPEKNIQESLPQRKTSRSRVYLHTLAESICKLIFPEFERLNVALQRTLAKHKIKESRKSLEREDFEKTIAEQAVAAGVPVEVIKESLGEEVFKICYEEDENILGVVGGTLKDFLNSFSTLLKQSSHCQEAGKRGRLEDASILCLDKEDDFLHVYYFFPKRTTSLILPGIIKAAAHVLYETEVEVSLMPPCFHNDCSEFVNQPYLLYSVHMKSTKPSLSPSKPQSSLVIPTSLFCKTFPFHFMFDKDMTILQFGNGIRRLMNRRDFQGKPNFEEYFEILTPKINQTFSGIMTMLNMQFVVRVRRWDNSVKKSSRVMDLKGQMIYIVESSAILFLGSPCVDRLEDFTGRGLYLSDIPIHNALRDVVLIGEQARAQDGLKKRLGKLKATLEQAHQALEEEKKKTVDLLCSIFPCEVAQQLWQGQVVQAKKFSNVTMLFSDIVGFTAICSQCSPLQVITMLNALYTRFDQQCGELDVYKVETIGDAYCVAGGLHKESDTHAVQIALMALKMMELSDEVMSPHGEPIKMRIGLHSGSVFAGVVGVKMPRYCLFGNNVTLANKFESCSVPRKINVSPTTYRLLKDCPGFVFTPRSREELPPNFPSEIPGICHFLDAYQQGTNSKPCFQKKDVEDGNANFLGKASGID

Compound | EC50 [1] [µM] | Emax [2] [%] | EC50 [2] [µM]
O=C(O)[C@H]1[C@H]2CC[C@H](C2)[C@H]1Nc1nc(-c2cc(-c3ccon3)n(Cc3ccccc3F)n2)ncc1F (racemic) [Compound I-379] | < 0.1 |  | 
O=C(O)[C@H]1[C@@H](Nc2nc(-c3cc(-c4ccon4)n(Cc4ccccc4F)n3)ncc2F)[C@@H]2CC[C@H]1O2 (racemic) [Compound I-384] | > 1 |  | 
O=C(Nc1ccnc(-c2cc(-c3ccon3)n(Cc3ccccc3F)n2)n1)C(F)(F)F [Compound I-164] | 0.101 to 1 |  | 
CCC(C)[C@H](C(=O)O)N(C)c1nc(-c2cc(-c3ccon3)n(Cc3ccccc3F)n2)ncc1F (stereo partly drawn) [Compound I-247] |  | 80 to 100 | 0.001 to 0.1
CC(C)(C)[C@H](CC(=O)O)Nc1nc(-c2cc(-c3ccon3)n(Cc3ccccc3F)n2)ncc1F [Compound I-251] |  | 60 to 80 | 0.1 to 0.5
CCC(CC)(CN(C)c1nc(-c2cc(-c3ccon3)n(Cc3ccccc3F)n2)ncc1F)C(=O)O [Compound I-252] |  | 60 to 80 | 0.001 to 0.1
O=C(O)c1ccccc1C1CCN(c2nc(-c3cc(-c4ccon4)n(Cc4ccccc4F)n3)ncc2F)CC1 [Compound I-254] |  | 80 to 100 | 0.001 to 0.1
O=C(O)C1(c2ccc(F)cc2)CCN(c2nc(-c3cc(-c4ccon4)n(Cc4ccccc4F)n3)ncc2F)CC1 [Compound I-255] |  | 80 to 100 | 0.001 to 0.1
CCC(C)(C)C1(C(=O)O)CCN(c2nc(-c3cc(-c4ccon4)n(Cc4ccccc4F)n3)ncc2F)CC1 [Compound I-256] |  | 80 to 100 | 0.1 to 0.5
CC(C)CC(Nc1nc(-c2cc(-c3ccon3)n(Cc3ccccc3F)n2)ncc1F)C(=O)NS(C)(=O)=O (stereo not drawn) [Compound I-259] |  | 100 to 120 | 0.1 to 0.5
CC1(C)CCC(C(=O)O)N(c2nc(-c3cc(-c4ccon4)n(Cc4ccccc4F)n3)ncc2F)C1 (stereo not drawn) [Compound I-268] | < 0.1 |  | 
O=C(O)C12CC(Nc3nc(-c4cc(-c5ccon5)n(Cc5ccccc5F)n4)ncc3F)(C1)C2 [Compound I-269] | > 1 |  | 
CC(C)[C@@H](C(=O)O)N(C)c1ccnc(-c2cc(-c3ccon3)n(Cc3ccccc3F)n2)n1 [Compound I-272] |  | 60 to 80 | 0.1 to 0.5
O=C(O)CN(CC(F)(F)F)c1nc(-c2cc(-c3ccon3)n(Cc3ccccc3F)n2)ncc1F [Compound I-273] |  | 60 to 80 | 0.5 to 1
CN(Cc1cccc(C(=O)O)c1)c1nc(-c2cc(-c3ccon3)n(Cc3ccccc3F)n2)ncc1F [Compound I-274] |  | 100 to 120 | 0.001 to 0.1
CN(Cc1ccc(C(=O)O)cc1)c1nc(-c2cc(-c3ccon3)n(Cc3ccccc3F)n2)ncc1F [Compound I-275] |  | 80 to 100 | 0.001 to 0.1
Fc1ccccc1Cn1nc(-c2ncc(F)c(Nc3nnn[nH]3)n2)cc1-c1ccon1 [Compound I-276] |  | 40 to 60 | 0.1 to 0.5
CC(C)(CC(=O)O)Nc1nc(-c2cc(-c3ccon3)n(Cc3ccccc3F)n2)ncc1F [Compound I-277] |  | 60 to 80 | 0.1 to 0.5
O=c1ccc(CNc2nc(-c3cc(-c4ccon4)n(Cc4ccccc4F)n3)ncc2F)c[nH]1 [Compound I-278] |  | 80 to 100 | 0.1 to 0.5
CN(Cc1ccccc1C(=O)O)c1nc(-c2cc(-c3ccon3)n(Cc3ccccc3F)n2)ncc1F [Compound I-279] |  | 80 to 100 | 0.1 to 0.5
O=C(O)c1ccc(CNc2nc(-c3cc(-c4ccon4)n(Cc4ccccc4F)n3)ncc2F)cc1 [Compound I-280] |  | 100 to 120 | 0.1 to 0.5
O=C(NS(=O)(=O)N1CCN(c2nc(-c3cc(-c4ccon4)n(Cc4ccccc4F)n3)ncc2F)CC1)C1CC1 [Compound I-285] |  | 100 to 120 | 0.001 to 0.1
Oc1ccc(CNc2nc(-c3cc(-c4ccon4)n(Cc4ccccc4F)n3)ncc2F)cc1 [Compound I-286] |  | 80 to 100 | 0.001 to 0.1

Compound | EC50 [1] [µM] | Emax [2] [%] | EC50 [2] [µM]
CS(=O)(=O)c1ccc(CNc2nc(-c3cc(-c4ccon4)n(Cc4ccccc4F)n3)ncc2F)cc1 [Compound I-287] |  | 80 to 100 | 0.1 to 0.5
Oc1ccccc1CNc1nc(-c2cc(-c3ccon3)n(Cc3ccccc3F)n2)ncc1F [Compound I-288] |  | 80 to 100 | 0.1 to 0.5
CC1(CC(=O)O)CCN(c2nc(-c3cc(-c4ccon4)n(Cc4ccccc4F)n3)ncc2F)CC1 [Compound I-289] |  | 60 to 80 | 0.1 to 0.5
O=C(O)C1(C2CCCCC2)CCN(c2nc(-c3cc(-c4ccon4)n(Cc4ccccc4F)n3)ncc2F)CC1 [Compound I-290] |  | 60 to 80 | 0.1 to 0.5
O=C(O)C(CCNc1nc(-c2cc(-c3ccon3)n(Cc3ccccc3F)n2)ncc1F)c1ccccc1 (stereo not drawn) [Compound I-292] |  | 80 to 100 | 0.001 to 0.1
COC(=O)C1(N)CCN(c2nc(-c3cc(-c4ccon4)n(Cc4ccccc4F)n3)ncc2F)CC1 [Compound I-298] |  | 60 to 80 | 0.1 to 0.5
NC1(C(=O)O)CCN(c2nc(-c3cc(-c4ccon4)n(Cc4ccccc4F)n3)ncc2F)CC1 [Compound I-299] |  | 40 to 60 | 1 to 5
O=C(O)[C@@H]1CC(F)(F)CN1c1nc(-c2cc(-c3ccon3)n(Cc3ccccc3F)n2)ncc1F [Compound I-301] |  | 60 to 80 | 1 to 5
O=C(O)C12CC1CCCN2c1nc(-c2cc(-c3ccon3)n(Cc3ccccc3F)n2)ncc1F (stereo not drawn) [Compound I-308] | 0.101 to 1 |  | 
CN(c1nc(-c2cc(-c3ccon3)n(Cc3ccccc3F)n2)ncc1F)[C@@H]1CC[C@H](C(=O)O)C1 [Compound I-309] | < 0.1 |  | 
C[C@@H]1[C@H](C(=O)O)CCCN1c1nc(-c2cc(-c3ccon3)n(Cc3ccccc3F)n2)ncc1F [Compound I-310] | < 0.1 |  | 
C[C@H]1[C@@H](C(=O)O)CCCN1c1nc(-c2cc(-c3ccon3)n(Cc3ccccc3F)n2)ncc1F [Compound I-311] | 0.101 to 1 |  | 
O=C(O)C12CC1CN(c1nc(-c3cc(-c4ccon4)n(Cc4ccccc4F)n3)ncc1F)C2 (stereo not drawn) [Compound I-312] | 0.101 to 1 |  | 
C[C@@H]1CN(c2nc(-c3cc(-c4ccon4)n(Cc4ccccc4F)n3)ncc2F)C[C@@H]1C(=O)O [Compound I-314] | < 0.1 |  | 
Oc1c(F)cc(CNc2nc(-c3cc(-c4ccon4)n(Cc4ccccc4F)n3)ncc2F)cc1F [Compound I-317] | < 0.1 |  | 
OC[C@H]1CCN(c2nc(-c3cc(-c4ccon4)n(Cc4ccccc4F)n3)ncc2F)[C@@H](CO)C1 [Compound I-318] | < 0.1 |  | 
O=C(O)[C@H]1[C@@H](c2ccccc2)CCCN1c1nc(-c2cc(-c3ccon3)n(Cc3ccccc3F)n2)ncc1F [Compound I-319] | < 0.1 |  | 
CN(C[C@H](O)CO)c1nc(-c2cc(-c3ccon3)n(Cc3ccccc3F)n2)ncc1F [Compound I-320] | < 0.1 |  | 
CN(C[C@@H](O)CO)c1nc(-c2cc(-c3ccon3)n(Cc3ccccc3F)n2)ncc1F [Compound I-321] | < 0.1 |  | 
OC[C@@H](O)CN(CC1CC1)c1nc(-c2cc(-c3ccon3)n(Cc3ccccc3F)n2)ncc1F [Compound I-322] | < 0.1 |  | 
CC(C)N(C[C@H](O)CO)c1nc(-c2cc(-c3ccon3)n(Cc3ccccc3F)n2)ncc1F [Compound I-323] | 0.101 to 1 |  | 
CC(C)(O)CNc1nc(-c2cc(-c3ccon3)n(Cc3ccccc3F)n2)ncc1F [Compound I-325] | < 0.1 |  | 
O=C(Nc1ccnc(-c2cc(-c3ccon3)n(Cc3ccccc3F)n2)n1)[C@H](O)C(F)(F)F [Compound I-326] | 0.101 to 1 |  | 
